One assay has as its system Panc-1. Nature of the assay: cell proliferation (SRB) assay, Panc-1. It is filed as cell-based. The settings on record: Homo sapiens, Table 7. On the procedure:
(§1) Cells were seeded in 96-well plates and maintained for 5 days in the presence of 0.5 to 20 μM of individual compound, and cell proliferation was measured by the sulforhodamine B (SRB) assay as described previously (see, for example, Palakurthi, S. S. et al. Cancer Research 2000, 60(11), 2919-2925). Briefly, at the end of a 5-day treatment, cells were fixed in 10% cold trichloroacetic acid. Cell number was estimated by measuring the remaining bound dye of sulforhodamine B after washing. The percentage of growth was calculated by using the equation: 100×[(T−T0)/(C−T0)], where T and C represent the absorbance in treated and control cultures at Day 5, and T0 at time zero, respectively. If T is less than T0, cell death has occurred and can be calculated from 100×[(T−T0)/T0].
The compounds shown in Table 7 were evaluated using for activation of HRI using the dual luciferase surrogate eIF2α phosphorylation assay (see, for example, Chen, T. et al. Nature Chem Biol 2011, 7, 610-616) and for inhibition of cell proliferation using the SRB assay (see, for example, Palakurthi, S. S. et al. Cancer Res 2000, 60, 2919-2925) as described above.

The test system of assay [1] is CRL-2813 human melanoma cancer cells. Nature of the assay: cell proliferation (SRB) assay, CRL-2813. It is filed as cell-based. On the procedure: as §1
The subject of assay [2] is eIF2α phosphorylation (eIF2•GTP•Met-tRNAi ternary complex; HRI activation). Nature of the assay: surrogate dual luciferase eIF2α phosphorylation (ternary complex) assay. The assay is classed as cell-based, human. The settings on record: for maximal fold induction: Homo sapiens; for C3X: Calculated concentration of compound that will cause three-fold increase in the surrogate eIF2α phosphorylation assay: Table 7. From the text:
The dual luciferase expression vector and other plasmids used for these studies were previously described (see, for example, Ziegeler, G. et al. Journal of Biological Chemistry 2010, 285(20), 15408-19). The ternary complex assay, surrogate of eIF2α phosphorylation, has been described elsewhere (see, for example, Chen, T. et al. Nature Chemical Biology 2011, 7(9), 610-6). Briefly, the pBISA vector, which contains seven copies of the tetracycline-regulated transactivator response element (TRE), is flanked on both sides by minimal human cytomegalovirus (CMV) minimal promoters allowing bi-directional transcription and two MCSs (multiple cloning sites). Firefly and renilla luciferases were subcloned into MCS-I and MCS-II, respectively. This plasmid, designated pBISA-DL, transcribes two mRNAs that contain the 90 nucleotide plasmid derived 5′UTR (same sequence in both mRNAs), and the ORF encoding either firefly or renilla luciferase followed by a polyadenylation sequence. This plasmid was further modified by inserting the 5′UTR of ATF-4 mRNA into MCS-I in front of the firefly luciferase mRNA. Transcription from this unit generates an mRNA that contains the firefly luciferase ORF preceded by a 5′UTR composed of 90 nucleotides derived from the plasmid and 267 nucleotides derived from the 5′UTR of ATF-4 mRNA. Transcription from the other unit generates an mRNA that contains the renilla luciferase ORF proceeded only by the 90-nucleotide plasmid-derived sequence in the 5′UTR (pBISA-DL (ATF-4)) (see, for example, Chen, T. et al. Nature Chemical Biology 2011, 7(9), 610-6).
Cells expressing firefly and renilla luciferases were assayed with a dual glow luciferase assay kit, per manufacturer's instruction (Promega Inc., Madison, Wis.). The data calculations were carried out as the ratio of firefly to renilla luciferase signal.
A library of 1900 urea compounds was screened in the surrogate dual luciferase eIF2α phosphorylation (ternary complex) assay. This library was originally assembled and screened for inhibition of sEH by Hammock's group at UC-Davis (see, for example, Chen, T. et al. Nature Chem Biol 2011, 7, 610-616; Ziegeler, G et al. J Biol Chem 2010, 285, 15408-15419). We developed this assay in order to identify compounds that activate HRI, taking advantage of the fact that activated HRI phosphorylates eIF2α thereby reducing the amount of the eIF2•GTP•Met-tRNAi ternary complex that results in inhibition of translation of many mRNAs but paradoxically increases translation of some mRNAs that contain multiple upstream ORF (uORF) in their 5′ untranslated regions (UTRs). In our assay, firefly (F) luciferase mRNA is fused to 5′UTR of activating transcription factor 4 (ATF-4) mRNA that has multiple uORFs while renilla (R) luciferase mRNA is fused to a 5′UTR lacking any uORFs. Compounds that reduce the amount of the ternary complex, such as those activating HRI, would increase F luciferase expression while decreasing the R luciferase expression, resulting in an increased F/R luciferase ratio. To calculate the activity scores, the F/R ratios for every compound-treated wells were normalized to vehicle-treated (DMSO) wells that was arbitrarily set at 1 (F/R=1).

Assay [3] has as its system CRL-2813 human melanoma cancer cells transfected with HRI-targeting or non-targeting siRNA. Nature of the assay: cell proliferation (SRB) assay after HRI knockdown. It is filed as cell-based. On the procedure: as §1
Cell proliferation is a meaningful read-out for determining the specificity of a compound as it captures both on-target and off-target effects of the compound under study. […] If these compounds specifically activate HRI and this activity is required for the inhibition of cell proliferation, then reducing the expression of HRI should blunt their effect on cell proliferation. For this purpose, expression of HRI was knocked down in CRL-2813 human melanoma (about 70% knockdown efficiency) and MCF-7 human breast cancer cells (about 90% knockdown efficiency). These two cell lines were chosen because the HRI knockdown efficiency is lower in CRL-2813 than in MCF-7 cells providing a sort of dose-response data that correlates knockdown efficiency with the resistance of cells to inhibition of cell proliferation. […] Referring to FIG. 5A, CRL-2813 human melanoma cancer cells, and (FIG. 5B) MCF-7 human breast cancer cells were transfected with HRI targeted or non-targeted siRNA, treated with the indicated concentrations of I-6p and cell proliferation was measured by SRB assay. Calculated IC50 for all four compounds tested in CRL-2813 human melanoma cancer cells and MCF-7 human breast cancer cells transfected with non-target siRNA control (NTC) or HRI is shown in FIG. 5C and FIG. 5D, respectively. The experiment was conducted in triplicate and each experiment was independently performed three times. Data are shown as Mean±S.E.M. *NTC=non-target siRNA control.
Referring to FIG. 8, CRL-2813 human melanoma cancer cells were transfected with HRI targeted or non-targeted siRNA, treated with the indicated concentrations of (A) I-14, (B) I-15, (C) III-4 and (D) III-5 and cell proliferation was measured by SRB assay. Calculated IC50 for all four compounds tested in CRL-2813 human melanoma cancer cells transfected with non-target siRNA control (NTC) or HRI is shown in (E). The experiment was conducted in triplicate and each experiment was independently performed three times. Data are shown as Mean±S.E.M. *NTC=non-target siRNA control, IC50=effective dose of drug that inhibit cell proliferation by 50%.
In general, if the affinity of compounds for their molecular target is increased this should result in higher specificity of the compounds in the cell proliferation assay. […] These five compounds, two with average and three with high potency, were tested in cell proliferation assay using CRL-2813 cells transfected with non-targeted siRNA or HRI-targeted siRNA as described above.

Setting [4] is: Homo sapiens, CRL2813, SRB assay, Table 7, read-out: IC50 CRL-2813.
Where [5] appears, read: DMSO = 1, maximum tested concentration 20 μM, read-out: Emax: Maximum activity of compound expressed as fold over vehicle.
The mark [6] stands for this setting: cell proliferation assay, Table 2, cell line not named, read-out: IC50.
Setting [7] is: Homo sapiens, CRL2813, cell proliferation assay, Table 4, cell line not named, read-out: IC50.
Setting [8] is: surrogate eIF2α phosphorylation assay, Table 4, read-out: Emax (F/R).

Consider 17 compounds from patent publication US20160318856A1, “Substituted Urea eIF2alpha Kinase Activators” (THE BRIGHAM AND WOMEN'S HOSPITAL, INC., priority 2013, published 2016).

Where two headings read alike, the source gives them in different places.

What is called IC50 is the concentration that inhibits the measured activity by half. `O=C(Nc1cccc(OC(F)(F)F)c1)N[C@H]1CC[C@H](Oc2ccc(OC(F)(F)F)cc2)CC1`: the IC50 in the assay on Panc-1 is 3000 nM; in assay [1] (setting [4]) it was 1200 nM. Further, in assay [2] (setting [5]), the maximal fold induction turned out to be 14. Besides, the “C3X: Calculated concentration of compound that will cause three-fold increase in the surrogate eIF2α phosphorylation assay” value in assay [2] is 1.3 µM.
The matching figures for `O=C(Nc1cc(C(F)(F)F)cc(C(F)(F)F)c1)N[C@H]1CC[C@H](Oc2ccc(C(F)(F)F)cc2)CC1`: 700 nM, 150 nM, 38 and 0.15 µM.
The matching figures for `N#Cc1cccc(NC(=O)N[C@H]2CC[C@H](Oc3ccc(C(F)(F)F)cc3)CC2)c1`: 2500 nM, 800 nM, 10 and 2 µM.
The matching figures for `N#Cc1ccc(NC(=O)N[C@H]2CC[C@H](Oc3ccc(C(F)(F)F)cc3)CC2)cc1`: 2000 nM, 900 nM, 9 and 0.6 µM.
With `O=C(Nc1cccc(C(F)(F)F)c1)N[C@H]1CC[C@H](Oc2ccc(C(F)(F)F)cn2)CC1`, the IC50 in the assay with Panc-1 amounted to 2800 nM; in assay [1] (setting [4]), 1500 nM. Further, the maximal fold induction in assay [2] (setting [5]) was found to be 6. Further, the “C3X: Calculated concentration of compound that will cause three-fold increase in the surrogate eIF2α phosphorylation assay” value in assay [2] was 3.5 µM.
The matching figures for `N#Cc1cc(C(F)(F)F)ccc1O[C@H]1CC[C@H](NC(=O)Nc2cccc(C(F)(F)F)c2)CC1`: 1800 nM, 1300 nM, 8 and 2.5 µM.
In the case of `N#Cc1ccc(O[C@H]2CC[C@H](NC(=O)Nc3cccc(C(F)(F)F)c3)CC2)cc1`, the IC50 in the assay with Panc-1 came to 3000 nM; in assay [1] (setting [4]), 4000 nM. In addition, the maximal fold induction in assay [2] (setting [5]) worked out at 4. For the same compound, in assay [2], the “C3X: Calculated concentration of compound that will cause three-fold increase in the surrogate eIF2α phosphorylation assay” value is 5 µM.
For `N#Cc1ccc(NC(=O)N[C@H]2CC[C@H](Oc3ccc(C#N)cc3)CC2)cc1`, the IC50 (in the assay with Panc-1; in assay [1] (setting [4])) was 10000 nM in each case.
Regarding `N#Cc1ccc(O[C@H]2CC[C@H](NC(=O)Nc3cccc(C#N)c3)CC2)cc1`, the IC50 is more than 10000 nM in the assay with Panc-1 and 7000 nM in assay [1] (setting [4]).
For `O=C(Nc1cccc(C(F)(F)F)c1)N[C@H]1CC[C@H](Oc2ccc(F)cc2)CC1`, the IC50 in the assay with Panc-1 amounted to 3000 nM; in assay [1] (setting [4]), 2100 nM. Moreover, the maximal fold induction in assay [2] (setting [5]) is 11. Moreover, the “C3X: Calculated concentration of compound that will cause three-fold increase in the surrogate eIF2α phosphorylation assay” value in assay [2] is 2.5 µM.
As to `O=C(Nc1cccc(C(F)(F)F)c1)NC1CCC(Oc2ccccc2F)CC1` (stereo not drawn) [Compound I-14, 1-(4-(2-Fluorophenoxy)cyclohexyl)-3-(3-(trifluoromethyl)phenyl)urea], in assay [1] (Homo sapiens, CRL2813, cell proliferation assay, Table 3, cell line not named, values equal CRL-2813 values of Table 8, read-out: IC50), the IC50 is 2450 ± 900 nM. Besides, the “fold higher IC50 values in cells transfected with HRI-targeting siRNA vs. non-targeting siRNA” value in assay [3] (CRL-2813 cells, FIG. 10) was approximately 7 fold. The “dependence of inhibition of cell proliferation on HRI” value in assay [3] (HRI siRNA vs non-target siRNA, CRL-2813 (also MCF-7)) is on record as “dependent on HRI”. Moreover, in assay [3] (average, CRL-2813, FIG. 8), the “fold difference in resistance of cells to inhibition of cell proliferation upon HRI knockdown” value is approximately 8 fold. Moreover, the maximal fold induction in assay [2] (surrogate eIF2α phosphorylation assay, Table 3, read-out: Emax (F/R)) was determined as 7.98.
As for `CSc1ccc(NC(=O)N[C@H]2CC[C@H](OCc3c(F)cccc3F)CC2)cc1` [II-10p], the IC50 in assay [1] (setting [6]) is more than 20000 nM. The “Emax (F/R)” value is on record as 0.94 F/R in assay [2] (7.5 μM compound), 0.98 F/R in assay [2] (15 μM compound) and 1.07 F/R in assay [2] (30 μM compound).
The matching figures for `O=C(Nc1ccccc1)N[C@H]1CC[C@H](OCc2c(F)cccc2F)CC1` [II-11]: more than 20000 nM, 0.89 F/R, 0.88 F/R and 0.81 F/R.
As for `O=C(Nc1cccc(C(F)(F)F)c1)NC1CCCCC1` [III-1, 1-Cyclohexyl-3-(3-(trifluoromethyl)phenyl)urea], the IC50 in assay [1] (setting [7]) is 13200 ± 2300 nM. The maximal fold induction in assay [2] (setting [8]) worked out at 1.87.
As to `O=C(Nc1cccc(C(F)(F)F)c1)NC1CCC(O)CC1` (stereo not drawn) [III-2, 1-(4-Hydroxycyclohexyl)-3-(3-(trifluoromethyl)phenyl)urea], the IC50 in assay [1] (setting [7]) was more than 20000 nM. The maximal fold induction in assay [2] (setting [8]) came to 0.89.
Consider `COC1CCC(NC(=O)Nc2cccc(C(F)(F)F)c2)CC1` (stereo not drawn) [III-3, 1-(4-Methoxycyclohexyl)-3-(3-(trifluoromethyl)phenyl)urea], for which the IC50 in assay [1] (setting [7]) is more than 20000 nM. The maximal fold induction in assay [2] (setting [8]) was 1.16.
The matching figures for `O=C(Nc1cccc(C(F)(F)F)c1)NC1CCCC(Oc2ccc(C(F)(F)F)cc2)C1` (stereo not drawn) [III-6, 1-(3-(4-(Trifluoromethyl)phenoxy)cyclohexyl)-3-(3-(trifluoromethyl)phenyl)urea]: 3800 ± 1200 nM and 4.52.
